The nature of data set [1]: ulcerogenic activity test (GI). Conditions: in vivo, po. An excerpt:
(The ulcerogenic activity test is hereafter referred to as GI).

Data set [2] has as its system adjuvant-induced polyarthritis syndrome. Put plainly: adjuvant-induced polyarthritis syndrome in rats (inhibition of paw volume). It counts as in vivo, male Charles River-Wistar Lewis rats. Conditions: 504 h, rat, oral, from day before adjuvant, continued for 21 days. As for the experimental part: The (6,11-dihydro-11-oxodibenz[b,e]oxepinyl)pentanoic acids and derivatives thereof of the present invention are useful as antiarthritic agents due to their ability to suppress arthritis-type inflammation in mammals. […] M. Perron and F. D. Wood, Arthritis and Rheumatism, 2, 440 (1959).
Groups of 10 male Charles River-Wistar Lewis rats weighing 150 to 175 g were individually housed and maintained on a regular rat chow diet. Water was given ad libitrim. The adjuvant was prepared by suspending 75 mg of Mycobacterium butyricum (Defco Laboratories, Detroit, Mich.) in 10 ml of white paraffin oil with continuous stirring for 2 hrs at room temperature prior to administration. Test compounds are prepared by suspending the drug in water, adding one drop of Tween 80 per 10 ml of suspension, and homogenizing. The adjuvant suspension (0.1 ml) was injected into the footpad of the left hind paw of the rat. Test compound suspensions were administered orally (10 ml/kg) the day before adjuvant suspension injection and the administration was continued for 21 days. One group of ten rats was used for the test drug, standard, adjuvant-injected control and non-injected control. Control animals received vehicle (10 ml/kg). Three doses of test drug and one dose of standard preparation were used. Injected and non-injected paw volumes were determined on the day the adjuvant suspension was given, and on subsequent days thereafter (usually days 5, 10, 18, and " the method of C. A. Winter, et al., Proc. Soc. Exp. Biol. Med., 111, 544 (1962).
The percent inhibition of paw volume (injected and non-injected hind paw) was calculated by the following formula: [formula]
ED50 -values, i.e., the dose at which the drug affects a 50% inhibition of paw volume, were estimated by the method of J. T. Litchfield and F. Wilcoxon, J. Pharm. Exp. Ther., 96, 99 (1948) and statistically evaluated by means of the student "t" test.

Setting [3] is: injected hind paw, read-out: ED50 (dose at which the drug affects a 50% inhibition of paw volume), injected paw.
Where [4] appears, read: non-injected hind paw, read-out: ED50 (dose at which the drug affects a 50% inhibition of paw volume), non-injected paw.

SMILES strings stand for the structures. Read-outs that look alike come from different tables or passages of the source.

As a reminder, the ED50 is the dose that gives a 50% effect, or the effect in half of the subjects.

In the case of `CC(C(=O)O)c1ccc2c(c1)C(=O)c1ccccc1CO2` (stereo not drawn) [2-(6,11-Dihydro-11-oxodibenz[b,e]-oxepin-2-yl)propionic acid], the TD50 in data set [1] (read-out: GI ID50 (ulcerogenic activity)) stood at 5.5 mg/kg.
On to `CC(CCC(=O)O)c1ccc2c(c1)C(=O)c1ccccc1CO2` (stereo not drawn) [4-(6,11-Dihydro-11-oxodibenz[b,e]oxepin-2-yl)pentanoic acid], for which the TD50 in data set [1] is > 100 mg/kg. Moreover, the ED50 in data set [2] (setting [3]) came out at 6.4 mg/kg; in data set [2] (setting [4]), 3.4 mg/kg.
Turning to `CCCCC1C(=O)N(c2ccccc2)N(c2ccccc2)C1=O` [Phenylbutazone], the figures for the ED50 in data set [2] (setting [3]) and in data set [2] (setting [4]) were 12 mg/kg and 6.8 mg/kg, respectively.

Source of the values: patent US5008285A, “(6,11-dihydro-11-oxodibenz[b,e]oxepin-yl)pentanoic acids and derivatives thereof” (Hoechst-Roussel Pharmaceuticals, Inc., priority 1989, dated 1991).
